From patent publication US6479531B1, “Gastrin and cholecystokinin receptor ligands” (James Black Foundation Limited, priority 1998, dated 2002)

Biological target: T1, CCKB receptor (Mus musculus, UniProt P56481)
T1 construct: The whole brains from male mice (CD1 22-25 g; Charles River) were removed; from tissue; host or cells: cerebral cortex membranes of male CD1 mice
T1 sequence (P56481 1-453): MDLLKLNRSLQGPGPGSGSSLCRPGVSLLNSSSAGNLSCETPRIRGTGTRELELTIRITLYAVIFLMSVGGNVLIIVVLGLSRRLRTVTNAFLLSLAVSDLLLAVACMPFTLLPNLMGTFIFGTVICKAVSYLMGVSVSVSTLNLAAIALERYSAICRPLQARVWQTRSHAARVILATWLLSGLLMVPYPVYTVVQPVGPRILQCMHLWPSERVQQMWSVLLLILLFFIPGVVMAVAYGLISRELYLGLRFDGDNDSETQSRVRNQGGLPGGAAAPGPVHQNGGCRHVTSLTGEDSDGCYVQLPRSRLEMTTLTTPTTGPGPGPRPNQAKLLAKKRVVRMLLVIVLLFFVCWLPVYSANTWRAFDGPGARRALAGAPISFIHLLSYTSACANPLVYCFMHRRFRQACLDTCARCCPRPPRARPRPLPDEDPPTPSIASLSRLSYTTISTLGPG
Experiment: CCKB receptor radioligand binding assay in mouse cortical membranes
Conditions: [125I]-CCK8(S) 200 pM, 150 min at 21±3°, read-out: CCKB pKi (converted)
Experimental: The compounds of the examples were tested for binding at the CCKB receptor in mouse cortical membranes by means of a radioligand binding assay. The procedure was as follows:
The whole brains from male mice (CD1 22-25 g; Charles River) were removed and placed in ice-cold buffer (pH 7.2 @ 21±3°) of the following composition (mM); 10 HEPES, 130 NaCl, 4.7 KCl, 5 MgCl2, 1 EDTA and containing 0.25 gl^−1 bacitracin. The cortex was dissected, weighed and homogenised in 40 ml ice-cold buffer using a Teflon-in-glass homogeniser. The homogenate was centrifuged at 39800 g for 20 min […], the supernatant discarded and the pellet resuspended by homogenisation in fresh buffer. The homogenate was recentrifuged (39800 g, 20 min @ 4°) and the final pellet was resuspended in HEPES buffer to give a tissue concentration of 20 mg ml^−1 (original wet weight).
The assay was terminated by rapid filtration through pre-soaked Whatman GF/B filters using a Brandell Cell Harvester. The filters were washed (3×3 ml) with ice-cold 50 mM Tris-HCl (pH 7.4 @ 4° C.) and bound radioactivity determined by counting (1 min) in a gamma-counter.

Ki	SMILES
13.2 nM	O=C(O)Cc1cccc(NC(=O)c2nc(-c3ccccc3)[nH]c2CCC23CC4CC(CC(C4)C2)C3)c1 [Example 82, (3-{[5-(2-Adamantan-1-yl-ethyl)-2-phenyl-1H-imidazole-4-carbonyl]-amino}-phenyl)-acetic Acid]
813 nM	O=C(O)c1cccc(NC(=O)c2[nH]c(-c3ccc4ccccc4c3)nc2CC2CCCCCC2)c1 [Example 21, 3-[(5-Cycloheptylmethyl-2-naphthalen-2-yl-1H-imidazole-4-carbonyl)-amino]-benzoic Acid]
302 nM	Cc1cc(NC(=O)c2nc(-c3ccccc3C)[nH]c2CCC23CC4CC(CC(C4)C2)C3)cc(C(=O)O)c1 [Example 247, 3-{[5-(2-Adamantan-1-yl-ethyl)-2-o-tolyl-1H-imidazole-4-carbonyl]-amino}-5-methyl-benzoic Acid]
245 nM	CN(C)c1ccccc1-c1nc(C(=O)Nc2cccc(C(=O)O)c2)c(CCC23CC4CC(CC(C4)C2)C3)[nH]1 [Example 70, 3-{[5-(2-Adamantan-1-yl-ethyl)-2-(2-dimethylamino-phenyl)-1H-imidazole-4-carbonyl]-amino}-benzoic Acid]
724 nM	O=C(Nc1cccc(-c2nnn[nH]2)c1)c1cc(-c2ccc3ccccc3c2)[nH]c1CC1CCCCCC1 [Example 16, 2-Cycloheptylmethyl-5-naphthalen-2-yl-1H-pyrrole-3-carboxylic Acid [3-(1H-tetrazol-5-yl)-phenyl]-amide]
26.3 nM	Cc1ccccc1-c1nc(C(=O)Nc2ccc(C)c(C(=O)O)c2C)c(CCC23CC4CC(CC(C4)C2)C3)[nH]1 [Example 240, 3-{[5-(2-Adamantan-1-yl-ethyl)-2-o-tolyl-1H-imidazole-4-carbonyl]-amino}-2,6-dimethyl-benzoic Acid]
4790 nM	O=C(O)c1cc(NC(=O)c2nc(-c3cccnc3)[nH]c2CC2CCCCCC2)cc(C(=O)O)c1 [Example 32, 5-[(5-Cycloheptylmethyl-2-pyridin-3-yl-1H-imidazole-4-carbonyl)-amino]-isophthalic Acid]
447 nM	O=C(O)c1cccc(NC(=O)c2cc(-c3ccccc3)[nH]c2CCC23CC4CC(CC(C4)C2)C3)c1 [Example 19, 3-{[2-(2-Adamantan-1-yl-ethyl)-5-phenyl-1H-pyrrole-3-carbonyl]-amino}-benzoic Acid]
479 nM	O=C(O)c1cccc(CNC(=O)c2nc(-c3ccccc3)[nH]c2CCC23CC4CC(CC(C4)C2)C3)c1 [Example 85, 3-({[5-(2-Adamantan-1-yl-ethyl)-2-phenyl-1H-imidazole-4-carbonyl]-amino}-methyl)-benzoic Acid]
3550 nM	O=C(O)c1cc(NC(=O)c2nc(CCc3ccccc3)[nH]c2CC2CCCCCC2)cc(C(=O)O)c1 [Example 27, 5-[(5-Cycloheptylmethyl-2-(2-phenyl-ethyl)-1H-imidazole-4-carbonyl)-amino]-isophthalic Acid]
4070 nM	O=C(Nc1cc(CO)cc(CO)c1)c1[nH]c(-c2ccc3ccccc3c2)nc1CC1CCCCCC1 [Example 22, 5-Cycloheptylmethyl-2-naphthalen-2-yl-1H-imidazole-4-carboxylic Acid (3,5-bis-hydroxymethyl-phenyl)-amide]
2570 nM	O=C(O)CCNC(=O)c1nc(-c2ccccc2F)[nH]c1CCC12CC3CC(CC(C3)C1)C2 [Example 52, 3-{[5-(2-Adamantan-1-yl-ethyl)-2-(2-fluoro-phenyl)-1H-imidazole-4-carbonyl]-amino}-propionic Acid]
209 nM	O=C(O)c1cc(NC(=O)c2cc(-c3ccccc3)[nH]c2CCC23CC4CC(CC(C4)C2)C3)cc(C(=O)O)c1 [Example 17, 5-{[2-(2-Adamantan-1-yl-ethyl)-5-phenyl-1H-pyrrole-3-carbonyl]-amino}-isophthalic Acid]
2510 nM	Cc1ccccc1-c1nc(C(=O)N2CCC[C@H]2C(=O)O)c(CCC23CC4CC(CC(C4)C2)C3)[nH]1 [Example 95, (2S)-1-[5-(2-Adamantan-1-yl-ethyl)-2-o-tolyl-1H-imidazole-4-carbonyl]-pyrrolidine-carboxylic Acid]
182 nM	O=C(Nc1cccc(-c2nnn[nH]2)c1)c1nc(-c2ccccc2)[nH]c1CCC12CC3CC(CC(C3)C1)C2 [Example 49]
2140 nM	O=C(O)c1cccc(NC(=O)c2nc(C(C3CCCCC3)C3CCCCC3)[nH]c2CCC23CC4CC(CC(C4)C2)C3)c1 [Example 128, 3-{[5-(2-Adamanatan-1-yl-ethyl)-2-dicyclohexylmethyl-1H-imidazole-4-carbonyl]-amino}-benzoic Acid]
912 nM	O=C(O)c1cccc(NC(=O)c2nc(-c3cc(Cl)cc(Cl)c3)[nH]c2CCC23CC4CC(CC(C4)C2)C3)c1 [Example 147, 3-{[5-(2-Adamantan-1-yl-ethyl)-2-(3,5-dichlorophenyl)-1H-imidazole-4-carbonyl]-amino}-benzoic Acid]
182 nM	O=C(Nc1cc(-c2nnn[nH]2)cc(-c2nnn[nH]2)c1)c1cc(-c2ccc3ccccc3c2)[nH]c1CC1CCCCCC1 [Example 15, 2-Cycloheptylmethyl-5-naphthalen-2-yl-1H-pyrrole-3-carboxylic Acid [3,5-bis-(1H-tetrazol-5-yl)-phenyl]-amide]
646 nM	O=C(O)c1ccc(NC(=O)c2cc(-c3ccccc3)[nH]c2CC23CC4CC(CC(C4)C2)C3)cc1 [Example 7, 4-[(2-Adamantan-1-ylmethyl-5-phenyl-1H-pyrrole-3-carbonyl)-amino]-benzoic Acid]
10000 nM	O=C(O)c1cccc(NC(=O)c2nc[nH]c2CCC23CC4CC(CC(C4)C2)C3)c1 [Example 77, 3-{[5-(2-Adamantan-1-yl-ethyl)-1H-imidazole-4-carbonyl]-amino}-benzoic Acid]
229 nM	O=C(Nc1cc(-c2nnn[nH]2)cc(-c2nnn[nH]2)c1)c1cc(-c2ccc3ccccc3c2)[nH]c1CC12CC3CC(CC(C3)C1)C2 [Example 5, 2-Adamantan-1-ylmethyl-5-naphthalen-2-yl-1H-pyrrole-3-carboxylic Acid [3,5-bis-(1H-tetrazol-5-yl)-phenyl]-amide]
204 nM	Cc1ccccc1-c1cc(C(=O)Nc2cccc(C(=O)O)c2)c(CCC23CC4CC(CC(C4)C2)C3)[nH]1 [Example 123, 3-{[2-(2-Adamantan-1-yl-ethyl)-5-o-tolyl-1H-pyrrole-3-carbonyl]-amino}-benzoic Acid]
501 nM	O=C(O)c1cccc(NC(=O)c2nc(-c3ccc4ccccc4c3)[nH]c2CCC23CC4CC(CC(C4)C2)C3)c1 [Example 45, 3-{[5-(2-Adamantan-1-yl-ethyl)-2-naphthalen-2-yl-1H-imidazole-4-carbonyl]-amino}-benzoic Acid]
1450 nM	Cc1ccccc1-c1nc(C(=O)Nc2cccc(C(=O)O)c2)c(CC23CC4CC(CC(C4)C2)C3)[nH]1 [Example 170, 3-[(5-Adamantan-1-ylmethyl-2-o-tolyl-1H-imidazole-4-carbonyl)-amino]-benzoic Acid]
2630 nM	O=C(O)c1ccc(NC(=O)c2nc(-c3ccccc3F)[nH]c2CCC23CC4CC(CC(C4)C2)C3)cc1 [Example 51, 4-{[5-(2-Adamantan-1-yl-ethyl)-2-(2-fluoro-phenyl)-1H-imidazole-4-carbonyl]-amino}-benzoic Acid]
4370 nM	O=C(O)c1cc(NC(=O)c2nc(-c3ccccc3C(F)(F)F)[nH]c2CCC2CCCCCC2)cc(C(=O)O)c1 [Example 41, 5-{[5-(2-Cycloheptyl-ethyl)-2-(2-trifluoromethyl-phenyl)-1H-imidazole-4-carbonyl]-amino}-isophthalic Acid]
3890 nM	O=C(O)c1cc(NC(=O)c2nc[nH]c2CC2CCCCCC2)cc(C(=O)O)c1 [Example 35, 5-[(5-Cycloheptylmethyl-1H-imidazole-4-carbonyl)-amino]-isophthalic Acid]
1230 nM	O=C(O)c1cc(NC(=O)c2nc(-c3cccc4ccccc34)[nH]c2CC2CCCCCC2)cc(C(=O)O)c1 [Example 23, 5-[(5-Cycloheptylmethyl-2-naphthalen-1-yl-1H-imidazole-4-carbonyl)-amino]-isophthalic Acid]
2510 nM	Cc1ccccc1-c1nc(C(=O)N2CCCC(C(=O)O)C2)c(CCC23CC4CC(CC(C4)C2)C3)[nH]1 (racemic) [Example 93, (±)-1-[5-(2-Adamantan-1-yl-ethyl)-2-o-tolyl-1H-imidazole-4-carbonyl]-piperidine-3-carboxylic Acid]
9.55 nM	O=C(Nc1cccc(-c2nnn[nH]2)c1)c1nc(C2CCCCC2)[nH]c1CCC12CC3CC(CC(C3)C1)C2 [Example 130]

SMILES	Ki
O=C(O)c1cc(NC(=O)c2[nH]c(-c3ccc4ccccc4c3)nc2CC2CCCCCC2)cc(C(=O)O)c1 [Example 20, 5-[(5-Cycloheptylmethyl-2-naphthalen-2-yl-1H-imidazole-4-carbonyl)-amino]-isophthalic Acid]	251 nM
